Experimental data taken from patent publication US11213563B2, “Polypeptide and use thereof” (Genoimmune Therapeutics Co., Ltd., priority 2016, dated 2022).

Experiments:
Type in all cases: in vivo
[1] = tested on: human non-small cell lung adenocarcinoma cell line H2087-polypeptide FILDGLYSV; test: Polypeptide + Freund's adjuvant vaccine in subcutaneous tumor-modeled NOD/SCID mice; settings: adjuvant+polypeptide 100 μg s.c., 4 immunizations; vs adjuvant alone and adjuvant+wild-type polypeptide groups
Protocol: (§1) After isolated with Ficoll solution from 600 to 900 ml anticoagulant peripheral blood from a healthy volunteer, the collected PBMCs in a concentration of 2×10^7 cells/0.5 ml were intraperitoneally injected into each of 300 NOD SCID mice without immune leakage, so as to reconstruct a human immune system in the NOD SCID mice, with the mice after 4 weeks selected for subsequent inoculation of the human non-small cell lung adenocarcinoma cell line H2087-polypeptide […] obtained in 6.2.
(§2) The human non-small cell lung adenocarcinoma cell line H2087-polypeptide […] (SEQ ID NO:1) obtained in 6.2 was incubated in DMEM medium containing 10% fetal calf serum, 100 U/mL penicillin and 100 U/mL streptomycin in an incubator under 37° C. and 5% CO2, and then the cells were centrifuged at 3000 rpm for collection. The collected cells were washed with sterile physiological saline three times, and then diluted appropriately. To 40 μl tumor cell suspension, 10 μl 0.4% […] was added for staining, subsequently the tumor cell suspension in a concentration of 1×10^8 cells/ml was prepared after counting under microscope. 100 μl of the tumor cell suspension was inoculated into each of the NOD/SCID mice by subcutaneous injection at 4 weeks post immune reconstruction in 6.3, with daily observation of the presence/absence of infection at inoculation sites, the increase/decrease of tumor size (in the case of presence of a tumor), and measurement of the major axis (a) and the minor axis (b) of a tumor by a vernier caliper every 2 or 3 days (where the tumor size=a×b×b/2). After 7 days from inoculation, a tumor in a size of rice grain was touchable at the inoculation site. After that, the subcutaneous tumor-modeled NOD/SCID mice (modeled with H2087-polypeptide […] (SEQ ID NO:1)) were treated with a polypeptide+complete Freund's adjuvant vaccine, a polypeptide+DCs vaccine, a lentivirus-infected DCs vaccine and a DC-CTL vaccine respectively, with the tumor size and mouse survival rate observed and recorded every 2 days.
The subcutaneous tumor-modeled NOD/SCID mice obtained in 6.4 of the example 6 were divided into 8 groups randomly as below, with 6 mice per group.
After 2 weeks, differently-immunized mice in 7 groups received respective same-dosage booster immunizations at 2 week interval for 4 times in total, with incomplete Freund's adjuvant for the latter three immunizations.
The general characteristics (including mental state, activity, response, diet, body weight and tumor growth) of the mice were observed daily, where the major axis (a) and the minor axis (b) of a tumor were measured by a vernier caliper every 2 days for calculation of tumor size according to a formula of a×b×b/2, where the mouse survival rate in a time period is calculated by the following formula: Survival rate=the number of survival mice/(the number of survival mice+the number of dead mice)×100%.

[2] = tested on: human non-small cell lung adenocarcinoma cell line H2087-polypeptide FILDGLYSV; test: DC polypeptide vaccine in subcutaneous tumor-modeled NOD/SCID mice; settings: DCs loaded with the polypeptide, intracutaneous, 2 injections; vs DCs loaded with wild-type polypeptide
Protocol: as §1, §2
Peripheral blood mononuclear cells (PBMCs) in 100 to 150 mL anticoagulant peripheral blood obtained from a healthy volunteer were isolated with Ficoll solution. The collected PBMCs suspended in the RPMI 1640 medium in a concentration of 2×10^6-3×10^6 cells/ml were incubated at 37° C. for 2 hours, obtaining adherent monocytes which can be induced into DCs, and non-adherent peripheral blood lymphocytes (PBLs) for use.
The subcutaneous tumor-modeled NOD/SCID mice obtained in 6.4 of the example were randomly divided into seven groups as below, with 6 mice per group.
For each of the above seven groups, DCs (respectively loaded with the wild-type polypeptide, the mutant polypeptide or each of five mutant polypeptide's variants) were washed with physiological saline three times and then diluted with the physiological saline to a concentration of (4.0±0.5)×10^7 cells/ml, and 0.1 ml of the resulting diluent (in a dosage of (4.0±0.5)×10^6 cells) was administrated to each inner thigh close to the inguen of each mouse by intracutaneous injection, at one week interval for 2 injections in total. The vital signs of the mice were observed after administration, and the major axis (a) and the minor axis (b) of a tumor were measured by a vernier caliper every 2 days for calculation of tumor size according to a formula of a×b×b/2, with the weight change and survival rate observed and recorded.

[3] = tested on: human non-small cell lung adenocarcinoma cell line H2087-polypeptide FILDGLYSV; test: Polypeptide-specific DC-CTL vaccine in subcutaneous tumor-modeled NOD/SCID mice; settings: CTLs stimulated by DCs loaded with the polypeptide, i.v. 1×10^8 cells/mouse; vs wild-type CTL group
Protocol: as §1
The human non-small cell lung adenocarcinoma cell line H2087-polypeptide […] (SEQ ID NO:1) obtained in 6.2 was incubated in DMEM medium containing 10% fetal calf serum, 100 U/mL penicillin and 100 U/mL streptomycin in an incubator under 37° C. and 5% CO2, and then the cells were centrifuged at 3000 rpm for collection. The collected cells were washed with sterile physiological saline three times, and then diluted appropriately. To 40 μl tumor cell suspension, 10 μl 0.4% […] was added for staining, subsequently the tumor cell suspension in a concentration of 1×10^8 cells/ml was prepared after counting under microscope. 100 μl of the tumor cell suspension was inoculated into each of the NOD/SCID mice by subcutaneous injection at 4 weeks post immune reconstruction in 6.3, with daily observation of the presence/absence of infection at inoculation sites, the increase/decrease of tumor size (in the case of presence of a tumor), and measurement of the major axis (a) and the minor axis (b) of a tumor by a vernier caliper every 2 or 3 days (where the tumor size=a×b×b/2).
The number of T lymphocytes was counted at day 0, 7, 14 and 21 post incubation, for calculation of cell proliferation index (PI), where PI=cell number after proliferation/cell number seeded. The cytotoxic T lymphocytes (CTLs) were harvested at day 21 post incubation, which were suspended in 0.2 ml physiological saline, and then injected intravenously to the subcutaneous tumor-modeled NOD/SCID mice via the tail in an amount of 1×10^8 cells/mouse. The vital signs of the mice were observed after administration, and the major axis (a) and the minor axis (b) of a tumor were measured by a vernier caliper every 2 days for calculation of tumor size.

Sequence	Mouse survival period [1]	Tumor growth [1]	Mouse survival period [2]	Tumor growth [2]	Mouse survival period [3]	Tumor growth [3]
FILDGLYSL [mutant polypeptide's variant, Leucine at position 9]	prolonging mouse survival period effectively	inhibiting tumor growth	prolonging the mouse survival period	mitigating tumor growth significantly	prolonging mouse survival period significantly	inhibiting tumor growth
FILDGLYSV [mutant polypeptide from COL21A1, Serine at position 45 mutated into Leucine]	prolonging mouse survival period effectively	inhibiting tumor growth	prolonging the mouse survival period	mitigating tumor growth significantly	prolonging mouse survival period significantly	inhibiting tumor growth
FLLDGLYSL [mutant polypeptide's variant, Leucine at positions 2 and 9]	prolonging mouse survival period effectively	inhibiting tumor growth	prolonging the mouse survival period	mitigating tumor growth significantly	prolonging mouse survival period significantly	inhibiting tumor growth
FLLDGLYSV [mutant polypeptide's variant, Leucine at position 2]	prolonging mouse survival period effectively	inhibiting tumor growth	prolonging the mouse survival period	mitigating tumor growth significantly	prolonging mouse survival period significantly	inhibiting tumor growth
FMLDGLYSL	prolonging mouse survival period effectively	inhibiting tumor growth	prolonging the mouse survival period	mitigating tumor growth significantly	prolonging mouse survival period significantly	inhibiting tumor growth
FMLDGLYSV	prolonging mouse survival period effectively	inhibiting tumor growth	prolonging the mouse survival period	mitigating tumor growth significantly	prolonging mouse survival period significantly	inhibiting tumor growth
